This note sets out measurements from the supplement of paper PMC10307832.

Holding throughout (assay): relative viability (nuclei count vs DMSO), 5 days (fraction); higher = more cells survive
Compound in test [1]: CC1=NN=C(O1)C2=NN=C(C=C2)N3CCC(CC3)OC4=C(C=CC(=C4)F)Cl + CCNC(=O)c1noc(-c2cc(C(C)C)c(O)cc2O)c1-c1ccc(CN2CCOCC2)cc1 [Luminespib] (partner 0.01 µM)
The method in brief: (§1)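 Five library-drug doses in √10 steps were combined with a fixed anchor-drug dose, or a single drug was given alone, by pin tool to lung cancer cell lines in 1536-well plates the day after seeding. Nuclei were stained and counted after 5 days. Relative viability is the nuclei count in treated wells over that in vehicle wells, taken as the median of duplicate plates.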

Compound in the test “Tosedostat + Crizotinib”: CC(C)C[C@@H](C(=O)N[C@H](C(=O)OC1CCCC1)c1ccccc1)[C@H](O)C(=O)NO [Tosedostat] + C[C@@H](Oc1cc(-c2cnn(C3CCNCC3)c2)cnc1N)c1c(Cl)ccc(F)c1Cl [Crizotinib] (partner 1 µM)
An outline of the steps:
as §1

Compound in test [2]: CC1=NN=C(O1)C2=NN=C(C=C2)N3CCC(CC3)OC4=C(C=CC(=C4)F)Cl + Cc1nc(Nc2ncc(C(=O)Nc3c(C)cccc3Cl)s2)cc(N2CCN(CCO)CC2)n1 [Dasatinib] (partner 0.075 µM)
An outline of the steps: as §1

Compound in test [3]: CC1=NN=C(O1)C2=NN=C(C=C2)N3CCC(CC3)OC4=C(C=CC(=C4)F)Cl + CC1(C)CCC(c2ccc(Cl)cc2)=C(CN2CCN(c3ccc(C(=O)NS(=O)(=O)c4ccc(N[C@H](CCN5CCOCC5)CSc5ccccc5)c(S(=O)(=O)C(F)(F)F)c4)cc3)CC2)C1 [Navitoclax] (partner 0.5 µM)
An outline of the steps:
as §1

Take NCI-H1993: the relative viability in test [1] (first compound 0.253 µM) stood at 0.636; in test [1] (first compound 0.8 µM), 0.829; in test [1] (first compound 2.53 µM), 0.74; in test [1] (first compound 8 µM), 0.725; in the test with Tosedostat + Crizotinib (first compound 0.02 µM) it was 0.994; in the test with Tosedostat + Crizotinib (first compound 0.06325 µM), 0.761. Further, the relative viability with Tosedostat + Crizotinib (first compound 0.2 µM) was 0.779; in the test with Tosedostat + Crizotinib (first compound 0.6325 µM), 0.688; in the test with Tosedostat + Crizotinib (first compound 2 µM), 0.685; in test [2] (first compound 0.253 µM), 0.537; in test [2] (first compound 0.8 µM), 0.564; in test [2] (first compound 2.53 µM), 0.768. Moreover, the relative viability was determined as 0.549 in test [2] (first compound 8 µM); 0.804 in test [3] (first compound 0.253 µM); 0.824 in test [3] (first compound 0.8 µM); 0.876 in test [3] (first compound 2.53 µM); 0.878 in test [3] (first compound 8 µM).
For NCI-H2009, the relative viability in test [1] (first compound 0.253 µM) was determined as 0.596; in test [1] (first compound 0.8 µM) it was 0.565; in test [1] (first compound 2.53 µM), 0.539; in test [1] (first compound 8 µM), 0.523; in the test with Tosedostat + Crizotinib (first compound 0.02 µM), 1.07; with Tosedostat + Crizotinib (first compound 0.06325 µM), 1.07. Also, the relative viability with Tosedostat + Crizotinib (first compound 0.2 µM) turned out to be 1; in the test with Tosedostat + Crizotinib (first compound 0.6325 µM), 1.02; with Tosedostat + Crizotinib (first compound 2 µM), 0.924; in test [2] (first compound 0.253 µM), 0.309; in test [2] (first compound 0.8 µM) it was 0.289; in test [2] (first compound 2.53 µM) it was 0.307. The relative viability in test [2] (first compound 8 µM) was 0.327; in test [3] (first compound 0.253 µM), 0.667; in test [3] (first compound 0.8 µM), 0.671; in test [3] (first compound 2.53 µM) it was 0.614; in test [3] (first compound 8 µM), 0.54.
In the case of NCI-H2023, the relative viability is 0.376 in test [1] (first compound 0.253 µM); 0.389 in test [1] (first compound 0.8 µM); 0.336 in test [1] (first compound 2.53 µM); 0.253 in test [1] (first compound 8 µM); 0.689 with Tosedostat + Crizotinib (first compound 0.02 µM); 0.609 in the test with Tosedostat + Crizotinib (first compound 0.06325 µM). Further, the relative viability came to 0.747 with Tosedostat + Crizotinib (first compound 0.2 µM); 0.696 in the test with Tosedostat + Crizotinib (first compound 0.6325 µM); 0.637 with Tosedostat + Crizotinib (first compound 2 µM); 0.429 in test [2] (first compound 0.253 µM); 0.442 in test [2] (first compound 0.8 µM); 0.476 in test [2] (first compound 2.53 µM). The relative viability in test [2] (first compound 8 µM) worked out at 0.402; in test [3] (first compound 0.253 µM), 0.486; in test [3] (first compound 0.8 µM), 0.557; in test [3] (first compound 2.53 µM), 0.565; in test [3] (first compound 8 µM) it was 0.442.
As for NCI-H2085, the relative viability in test [1] (first compound 0.253 µM) amounted to 0.499; in test [1] (first compound 2.53 µM), 0.339; in test [1] (first compound 8 µM), 0.216; with Tosedostat + Crizotinib (first compound 0.02 µM), 0.842; in the test with Tosedostat + Crizotinib (first compound 0.06325 µM), 0.98; in the test with Tosedostat + Crizotinib (first compound 0.2 µM) it was 0.91. The relative viability with Tosedostat + Crizotinib (first compound 0.6325 µM) came out at 0.896; in the test with Tosedostat + Crizotinib (first compound 2 µM) it was 0.814; in test [2] (first compound 0.253 µM), 0.303; in test [2] (first compound 0.8 µM), 0.234; in test [2] (first compound 2.53 µM), 0.255; in test [2] (first compound 8 µM) it was 0.227. The relative viability in test [3] (first compound 0.253 µM) was 0.9; in test [3] (first compound 0.8 µM), 0.919; in test [3] (first compound 2.53 µM) it was 0.908; in test [3] (first compound 8 µM), 0.698.
On to NCI-H2087, for which the relative viability amounted to 0.17 in test [1] (first compound 0.253 µM); 0.144 in test [1] (first compound 0.8 µM); 0.151 in test [1] (first compound 2.53 µM); 0.164 in test [1] (first compound 8 µM); 0.832 in the test with Tosedostat + Crizotinib (first compound 0.02 µM); 0.823 with Tosedostat + Crizotinib (first compound 0.06325 µM). Moreover, the relative viability stood at 0.643 with Tosedostat + Crizotinib (first compound 0.2 µM); 0.731 with Tosedostat + Crizotinib (first compound 0.6325 µM); 0.716 with Tosedostat + Crizotinib (first compound 2 µM); 0.597 in test [2] (first compound 0.253 µM); 0.458 in test [2] (first compound 0.8 µM); 0.581 in test [2] (first compound 2.53 µM). Further, the relative viability in test [2] (first compound 8 µM) was 0.515; in test [3] (first compound 0.253 µM), 0.701; in test [3] (first compound 0.8 µM), 0.713; in test [3] (first compound 2.53 µM) it was 0.724; in test [3] (first compound 8 µM) it was 0.63.
As for NCI-H2126, the relative viability in test [1] (first compound 0.253 µM) was determined as 0.826; in test [1] (first compound 0.8 µM), 0.795; in test [1] (first compound 2.53 µM), 0.734; in test [1] (first compound 8 µM), 0.828; with Tosedostat + Crizotinib (first compound 0.02 µM) it was 0.974; with Tosedostat + Crizotinib (first compound 0.06325 µM), 1.02. For the same cell line, the relative viability was determined as 1.02 in the test with Tosedostat + Crizotinib (first compound 0.2 µM); 0.954 with Tosedostat + Crizotinib (first compound 0.6325 µM); 0.935 with Tosedostat + Crizotinib (first compound 2 µM); 0.526 in test [2] (first compound 0.253 µM); 0.635 in test [2] (first compound 0.8 µM); 0.616 in test [2] (first compound 2.53 µM). Moreover, the relative viability is 0.611 in test [2] (first compound 8 µM); 0.785 in test [3] (first compound 0.253 µM); 0.759 in test [3] (first compound 0.8 µM); 0.747 in test [3] (first compound 2.53 µM); 0.645 in test [3] (first compound 8 µM).
Take NCI-H2170: the relative viability was 0.468 in test [1] (first compound 0.253 µM); 0.475 in test [1] (first compound 0.8 µM); 0.353 in test [1] (first compound 2.53 µM); 0.311 in test [1] (first compound 8 µM); 1.17 with Tosedostat + Crizotinib (first compound 0.02 µM); 1.12 with Tosedostat + Crizotinib (first compound 0.06325 µM). Further, the relative viability turned out to be 1.19 with Tosedostat + Crizotinib (first compound 0.2 µM); 1.22 in the test with Tosedostat + Crizotinib (first compound 0.6325 µM); 1.37 with Tosedostat + Crizotinib (first compound 2 µM); 0.351 in test [2] (first compound 0.253 µM); 0.332 in test [2] (first compound 0.8 µM); 0.374 in test [2] (first compound 2.53 µM). Besides, the relative viability turned out to be 0.316 in test [2] (first compound 8 µM); 0.464 in test [3] (first compound 0.253 µM); 0.421 in test [3] (first compound 0.8 µM); 0.556 in test [3] (first compound 2.53 µM); 0.417 in test [3] (first compound 8 µM).
Take NCI-H2228: the relative viability was 0.164 in test [1] (first compound 0.253 µM); 0.15 in test [1] (first compound 0.8 µM); 0.132 in test [1] (first compound 2.53 µM); 0.131 in test [1] (first compound 8 µM); 0.599 with Tosedostat + Crizotinib (first compound 0.02 µM); 0.438 with Tosedostat + Crizotinib (first compound 0.06325 µM). Moreover, the relative viability with Tosedostat + Crizotinib (first compound 0.2 µM) was 0.48; with Tosedostat + Crizotinib (first compound 0.6325 µM), 0.418; with Tosedostat + Crizotinib (first compound 2 µM) it was 0.445; in test [2] (first compound 0.253 µM), 0.555; in test [2] (first compound 0.8 µM), 0.412; in test [2] (first compound 2.53 µM) it was 0.537. Moreover, the relative viability in test [2] (first compound 8 µM) is 0.405; in test [3] (first compound 0.253 µM), 0.63; in test [3] (first compound 0.8 µM) it was 0.592; in test [3] (first compound 2.53 µM), 0.756; in test [3] (first compound 8 µM) it was 0.526.
